Test results reported in US11590116B2 (THERAVANCE BIOPHARMA R&D IP, LLC, priority 2019, dated 2023).

Assays:
[1] = system: TGF-β-stimulated SMAD3 phosphorylation in BEAS-2B cells; test: Cellular ALK5 potency assay, inhibition of TGF-β stimulated pSMAD3 formation in BEAS-2B cells; format: cell-based; conditions: Homo sapiens; inhibition of TGF-β stimulated pSMAD3 formation, BEAS-2B cells; read-out: BEAS2B pIC50 (converted)
Method in brief: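 AlphaLISA pSMAD3 read-out, beads incubated overnight. Human BEAS-2B cells: 1 h compound preincubation (37 °C, 5% CO2), then 30 min TGF-β at 10 ng/mL final, immediate lysis. Values are pIC50 relative to stimulated, compound-free baseline.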

[2] = molecular target: T1, recombinant human ALK5 (TGF-βR1) protein (Homo sapiens, UniProt P36897); test: Biochemical ALK5 (TGF-βR1) assay to measure pKi (LANCE Ultra ULight kinase assay); conditions: apparent pKi from pIC50 by Cheng-Prusoff, read-out: ALK5 pKi (converted)
T1 construct: purchased Life Technologies PR9075A
T1 sequence (P36897 34-503): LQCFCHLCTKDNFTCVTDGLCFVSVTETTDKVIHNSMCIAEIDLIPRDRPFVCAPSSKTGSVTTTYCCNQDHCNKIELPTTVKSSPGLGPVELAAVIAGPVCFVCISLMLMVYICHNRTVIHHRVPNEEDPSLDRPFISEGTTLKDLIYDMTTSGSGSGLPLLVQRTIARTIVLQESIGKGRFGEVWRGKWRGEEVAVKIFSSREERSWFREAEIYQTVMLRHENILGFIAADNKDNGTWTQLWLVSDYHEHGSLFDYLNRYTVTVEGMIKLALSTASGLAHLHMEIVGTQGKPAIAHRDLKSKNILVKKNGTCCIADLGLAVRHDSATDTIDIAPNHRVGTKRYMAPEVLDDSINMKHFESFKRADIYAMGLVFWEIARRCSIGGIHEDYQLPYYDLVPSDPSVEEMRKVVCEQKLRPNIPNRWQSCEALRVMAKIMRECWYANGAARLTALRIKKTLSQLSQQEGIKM
Method in brief: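 Compounds (10 μM to 25 pM) preincubated 60 minutes at room temperature with enzyme, then reaction run 60 minutes at 37° C with ATP added as 125 μM (5× final). Stopped with EDTA plus Eu-anti-phospho-Topoisomerase 2-alpha (Thr1342) antibody, TR-FRET read at 665 nm; pIC50 converted to pKi via Cheng-Prusoff.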

Ki [2] [nM]	Compound	IC50 [1] [nM]
< 0.0316	Cc1cccc(-c2[nH]cnc2-c2ccc3ncc(-c4ccc(C(=O)O)cn4)cc3c2)n1 [Compound 1091, 6-[6-[5-(6-methyl-2-pyridyl)-1H-imidazol-4-yl]-3-quinolyl]pyridine-3-carboxylic acid]	1580 to 10000
< 0.0316	Cc1cccc(-c2n[nH]cc2-c2ccc3ncc(-c4cnn(C5COC5)c4)cc3n2)n1 [Compound 669, 2-[3-(6-methyl-2-pyridyl)-1H-pyrazol-4-yl]-7-[1-(oxetan-3-yl)pyrazol-4-yl]-1,5-naphthyridine]	< 20
< 0.0316	Cc1cccc(-c2n[nH]cc2-c2ccc3ncc(-c4ccccc4)cc3n2)n1 [Compound 398, 2-[3-(6-methyl-2-pyridyl)-1H-pyrazol-4-yl]-7-phenyl-1,5-naphthyridine]	< 20
0.0398 to 0.316	Cc1cccc(-c2[nH]cnc2-c2ccc3ncc(C4=CCC(NCc5ccccc5)CC4)cc3n2)n1 (centres unmarked) [Compound 228, N-benzyl-4-[6-[5-(6-methyl-2-pyridyl)-1H-imidazol-4-yl]-1,5-naphthyridin-3-yl]cyclohex-3-en-1-amine]	200 to 1260
0.0398 to 0.316	Cc1cccc(-c2[nH]cnc2-c2ccc3ncc(NCCN4CCN[C@@H](CO)C4)cc3c2)n1 [Compound 708, [(2R)-4-[2-[[6-[5-(6-methyl-2-pyridyl)-1H-imidazol-4-yl]-3-quinolyl]amino]ethyl]piperazin-2-yl]methanol]	200 to 1260
0.0398 to 0.316	CNCCn1cc(-c2cnc3ccc(-c4c(-c5cccc(C)n5)nnn4Cc4ccccc4)nc3c2)cn1 [Compound 439, 2-[4-[6-[3-benzyl-5-(6-methyl-2-pyridyl)triazol-4-yl]-1,5-naphthyridin-3-yl]pyrazol-1-yl]-N-methyl-ethanamine]	25.1 to 158
0.0398 to 0.316	CNCCn1cc(-c2cnc3ccc(-c4nc[nH]c4-c4cccc(C)n4)nc3c2)cn1 [Compound 408, N-methyl-2-[4-[6-[5-(6-methyl-2-pyridyl)-1H-imidazol-4-yl]-1,5-naphthyridin-3-yl]pyrazol-1-yl]ethanamine]	25.1 to 158
0.0398 to 0.316	Cc1nc(-c2n[nH]cc2-c2ccc3ncc(-c4cnn(C[C@H]5C[C@@H](N)C5)c4)cc3n2)ccc1F [Compound 517, 3-[[4-[6-[3-(5-fluoro-6-methyl-2-pyridyl)-1H-pyrazol-4-yl]-1,5-naphthyridin-3-yl]pyrazol-1-yl]methyl]cyclobutanamine]	25.1 to 158
< 0.0316	Cc1cccc(-c2n[nH]cc2-c2ccc3ncc(-c4cnn(CCN5CCCC5=O)c4)cc3n2)n1 [Compound 571, 1-[2-[4-[6-[3-(6-methyl-2-pyridyl)-1H-pyrazol-4-yl]-1,5-naphthyridin-3-yl]pyrazol-1-yl]ethyl]pyrrolidin-2-one]	25.1 to 158

The remaining lines, values behind:

Compound	Ki [2] [nM]	IC50 [1] [nM]
Cc1cccc(-c2[nH]cnc2-c2ccc3ncc(N4CCC(N)CC4)cc3c2)n1 [Compound 438, 1-[6-[5-(6-methyl-2-pyridyl)-1H-imidazol-4-yl]-3-quinolyl]piperidin-4-amine]	0.0398 to 0.316	25.1 to 158
Cc1cccc(-c2[nH]ncc2-c2ccc3ncc(C(=O)O[C@H]4CC[C@@H](N)CC4)cc3c2)n1 [Compound 1228, (4-aminocyclohexyl) 6-[5-(6-methyl-2-pyridyl)-1H-pyrazol-4-yl]quinoline-3-carboxylate]	0.0398 to 0.316	25.1 to 158
Cc1cccc(-c2[nH]ncc2-c2ccc3nccc(C(=O)OC[C@H]4CC[C@@H](N)CC4)c3c2)n1 [Compound 1130, (4-aminocyclohexyl)methyl 6-[5-(6-methyl-2-pyridyl)-1H-pyrazol-4-yl]quinoline-4-carboxylate]	0.398 to 3.16	25.1 to 158
Cc1cccc(-c2n[nH]cc2-c2ccc3nc(C4CCCN4)c(-c4cn[nH]c4)cc3c2)n1 (centres unmarked) [Compound 291, 6-[3-(6-methyl-2-pyridyl)-1H-pyrazol-4-yl]-3-(1H-pyrazol-4-yl)-2-pyrrolidin-2-yl-quinoline]	3.98 to 31.6	1580 to 10000
Cc1cccc(-c2[nH]cnc2-c2ccc3ncc(-c4csc(C(=O)O[C@H]5CC[C@@](C)(N)CC5)c4)cc3c2)n1 [Compound 1232, (4-amino-4-methyl-cyclohexyl) 4-[6-[5-(6-methyl-2-pyridyl)-1H-imidazol-4-yl]-3-quinolyl]thiophene-2-carboxylate]	< 0.0316	25.1 to 158
Cc1cccc(-c2[nH]cnc2-c2ccc3ncc(-c4csc(C(=O)O[C@@H]5CCNC5)n4)cc3c2)n1 [Compound 1104, [(3R)-pyrrolidin-3-yl] 4-[6-[5-(6-methyl-2-pyridyl)-1H-imidazol-4-yl]-3-quinolyl]thiazole-2-carboxylate]	0.0398 to 0.316	25.1 to 158
Cc1cccc(-c2[nH]cnc2-c2ccc3ncc(C(=O)O[C@H]4CC[C@@](C)(N)CC4)cc3c2)n1 [Compound 768, (4-amino-4-methyl-cyclohexyl) 6-[5-(6-methyl-2-pyridyl)-1H-imidazol-4-yl]quinoline-3-carboxylate]	0.0398 to 0.316	25.1 to 158
Cc1cccc(-c2[nH]ncc2-c2ccc3nccc(C(=O)OCCC4CNC4)c3c2)n1 [Compound 1136, 2-(azetidin-3-yl)ethyl 6-[5-(6-methyl-2-pyridyl)-1H-pyrazol-4-yl]quinoline-4-carboxylate]	0.398 to 3.16	200 to 1260
Cc1cccc(-c2[nH]cnc2-c2ccc3ncc(-c4ccnc(C(=O)O[C@H]5CCNC5)c4)cc3c2)n1 [Compound 1058, [(3S)-pyrrolidin-3-yl] 4-[6-[5-(6-methyl-2-pyridyl)-1H-imidazol-4-yl]-3-quinolyl]pyridine-2-carboxylate]	0.0398 to 0.316	200 to 1260
Cc1cccc(-c2[nH]ncc2-c2ccc3ncc(C(=O)NN)cc3n2)n1 [Compound 247, 6-[5-(6-methyl-2-pyridyl)-1H-pyrazol-4-yl]-1,5-naphthyridine-3-carbohydrazide]	0.0398 to 0.316	25.1 to 158
Cc1nc(-c2n[nH]cc2-c2ccc3ncc(N4CCN(C(C)C)CC4)cc3n2)ccc1F [Compound 687, 2-[3-(5-fluoro-6-methyl-2-pyridyl)-1H-pyrazol-4-yl]-7-(4-isopropylpiperazin-1-yl)-1,5-naphthyridine]	< 0.0316	25.1 to 158
Cc1cccc(-c2[nH]cnc2-c2ccc3ncc(-c4ccc(C(=O)OC5CNC5)nc4)cc3c2)n1 [Compound 616, azetidin-3-yl 5-[6-[5-(6-methyl-2-pyridyl)-1H-imidazol-4-yl]-3-quinolyl]pyridine-2-carboxylate]	0.0398 to 0.316	25.1 to 158
Cc1cccc(-c2[nH]cnc2-c2ccc3ncc(-c4nc(C(=O)OCCN5CCC[C@H](N)C5)cs4)cc3c2)n1 [Compound 1172, 2-[(3S)-3-amino-1-piperidyl]ethyl 2-[6-[5-(6-methyl-2-pyridyl)-1H-imidazol-4-yl]-3-quinolyl]thiazole-4-carboxylate]	< 0.0316	200 to 1260
Cc1cccc(-c2[nH]ncc2-c2ccc3ncc(C(=O)OCCC4CCNC4)cc3c2)n1 (centres unmarked) [Compound 1164, 2-pyrrolidin-3-ylethyl 6-[5-(6-methyl-2-pyridyl)-1H-pyrazol-4-yl]quinoline-3-carboxylate]	0.0398 to 0.316	25.1 to 158
Cc1cccc(-c2n[nH]cc2-c2ccc3ncc(-c4nnn5c4NCCC5)cc3n2)n1 [Compound 550, 2-[3-(6-methyl-2-pyridyl)-1H-pyrazol-4-yl]-7-(4,5,6,7-tetrahydrotriazolo[1,5-a]pyrimidin-3-yl)-1,5-naphthyridine]	0.0398 to 0.316	25.1 to 158
Cc1cccc(-c2n[nH]cc2-c2ccc3nccc(-c4cnn(CCN5CCOCC5)c4)c3n2)n1 [Compound 833, 4-[2-[4-[6-[3-(6-methyl-2-pyridyl)-1H-pyrazol-4-yl]-1,5-naphthyridin-4-yl]pyrazol-1-yl]ethyl]morpholine]	0.0398 to 0.316	25.1 to 158
Cc1cccc(-c2[nH]cnc2-c2ccc3ncc(-c4nc(C(=O)OCCN5CCC[C@@H](N)C5)cs4)cc3c2)n1 [Compound 1252, 2-[(3R)-3-amino-1-piperidyl]ethyl 2-[6-[5-(6-methyl-2-pyridyl)-1H-imidazol-4-yl]-3-quinolyl]thiazole-4-carboxylate]	0.0398 to 0.316	25.1 to 158
Cc1cccc(-c2n[nH]cc2-c2ccc3nccc(N(C)C)c3n2)n1 [Compound 837, N,N-dimethyl-6-[3-(6-methyl-2-pyridyl)-1H-pyrazol-4-yl]-1,5-naphthyridin-4-amine]	0.0398 to 0.316	25.1 to 158
Cc1cccc(-c2n[nH]cc2-c2ccc3ncc(N(C)CC4CNC4)cc3n2)n1 [Compound 357, N-(azetidin-3-ylmethyl)-N-methyl-6-[3-(6-methyl-2-pyridyl)-1H-pyrazol-4-yl]-1,5-naphthyridin-3-amine]	< 0.0316	25.1 to 158
